Measurements: patent US4276890A, “Tobacco smoking inhibitor” (priority 1979, dated 1981)
“And” between values parts separate entries of the source, which are not always exact repeats. Equal values may be shown once. “Also recorded” adds a separate entry of the source.

What was measured:
[1] = tested on: hexobarbital-induced sleeping time; details: 300 to 500 mg per kg; cited from earlier work
[2] = tested on: rat brain cortex slices; details: in vitro; cited from earlier work
[3] = tested on: cigarette consumption of smokers; assay: Multi-day dose course in individual smokers (Example 4, Table 1): tobacco consumption; assay type: in vivo, human (volunteer smokers)
Excerpt: (§1) Smoking behavior is complex and includes cigarette, pipe and cigar smoking. Both from the standpoint of habituation and of health hazard, cigarette smoking is considered to be the most serious. It is contemplated that the treatment method described herein will be effective to inhibit all forms of smoking behavior and combinations thereof, involving the consumption of tobacco. For convenience, the ensuing discussion focuses on cigarette smoking, as exemplary of smoking behavior in general. Tobacco consumption is a function the number of cigarettes smoked and the proportion of each cigarette smoked. Reduction of consumption is measured by comparison with a smoker's pretreatment consumption rate. All data used herein are expressed as percent reduction, i.e., the differential between pretreatment and current smoking consumption rate divided by the pretreatment rate, times 100. All rates are calculated to take into account both the number of cigarettes smoked and the proportion of each smoked.
Extensive tests were made of individual smokers of varied age, smoking history, and sex in a course of treatment extending over several days. All smokers tested in this experiment were initially naive as to the purpose of the test or the expected effect. The subjects volunteered for the tests after being told that the material is safe according to FDA food additive standards and that they were to report all observed effects. So far as can be ascertained none of the subjects deduced the true purpose of the test until the effects were made obvious by substantial involuntary reduction in their smoking activities. Subjects were interviewed before the dosage course to insure that they were in general good health. Interviews were also conducted during and after the dosage course, at least every third day to ascertain what physiological or psychological effects were experienced. No side effects were noted during or after the treatment cycle.
Several individuals from the original test series volunteered for additional testing. In all such instances, a treatment free period of three weeks to three months was interposed between tests.
Subjects are identified by number. The original, naive tests are identified by the letter "a" following the subjects' number. Subsequent test series are identified sequentially by "b" and "c", where appropriate.
All subjects except nos. 10 and 11 received ethyl maltol in a chewing gum with instructions to chew for at least 10 minutes, and preferably 15 minutes. Subjects 10 and 11 received ethyl maltol in tablet form, rather than by sustained release in the mouth.

[4] = tested on: tobacco consumption of habitual smokers; assay: General observations of treatment on tobacco consumption and subjective effects; assay type: in vivo, human (test subjects
Excerpt: In a preferred embodiment, finely divided ethyl maltol is distributed in a chewing gum base, which when chewed by the subject, results in a gradual release of ethyl maltol into the oral cavity. When administered in appropriate amounts over a period of several days, there results a gradual decrease in the number of cigarettes smoked and the length of time they are smoked. […] Reductions in the frequency and quantity of smoking have been observed in test subjects who were unaware that their smoking behavior was monitored. […] Subjectively, test subjects experience a reduced desired to smoke, tend to neglect the opportunities to light up a cigarette and tend to leave cigarettes unsmoked in the ashtray after a few puffs. The effect is sufficiently subtle that a smoker is sometimes unaware that their tobacco consumption rate was decreased until such point as the lowered consumption rate becomes obvious. For smokers sincerely desiring to reduce or eliminate their smoking, the effect of the treatment is most gratifying. However, for smokers who are not psychologically committed to giving up smoking, the effects may be alarming. It is of course, possible to override the effects of the treatment by conscious effort to smoke at the pre-treatment rate.
as §1
Duration of treatment may be as little as ten days, preferably 20 to 30 days. As might be expected with a complex behavior such as smoking, where psychological and social factors play a major role in addition to individual variations in nicotine susceptibility and responsiveness to gamma pyrone, the rate of smoking reduction during treatment is highly variable. Typically, a gradual reduction to about 50% to the pretreatment rate is observed over the first four to six days. Frequently, little or no reduction is observed for the first two days, although occasionally a dramatic reduction is observed almost immediately. In the ensuing seven to ten days, further reductions, typically 70 to 100%, are observed. Reduction below the 50% level in the first 3-5 days is sometimes accompanied by the physiological (but not psychological) symptoms of nicotine withdrawl, such as vertigo, alimentary distress, diuresis, scotoma and disorientation. Such symptoms have never been observed in non-smoking control subjects using the same gamma pyrone dosages. […] The entire course of treatment is therefore extended somewhat, preferably to about 20 to 30 days total. […]

[5] = Volatility and storage stability; assay type: physicochemical
Protocol: The troches were made essentially by conventional candy making techniques. The polysaccharide and starch were first dry blended to substantial uniformity. About 3-4% by weight of water was added to the dry powder to form a thick paste. This paste was then heated to produce a uniform viscous melt. Maltol or ethyl maltol were added to this melt as saturated solutions in boiling water. The water solubility of the gamma pyrones is somewhat limited. For example, one gram of ethyl maltol requires 6 ml of water at 100° C. to dissolve completely. Since the water content of the mixture must be kept low, the amount of ethyl maltol which can be incorporated is about 3-4%, and preferably about 1% by weight of the troche. […] Alternatively, the entire process can be carried out in a suitable pressure apparatus.
A refined, bland chewing gum base, obtained from Adams Sour Apple gum, (Warner-Lambert, Inc., Morris Plains, N.J.) was heated to 45° C. in a 100 gram batch. Ethyl maltol, 300 to 400 mesh, 6.66 grams, was added to the chewing gum base with thorough mixing to provide an even distribution of particles throughout the mass. The mass was then rolled into individual 3 gram sticks and allowed to cool. Alternatively, the mass was rolled as a single thin rectangular slab, allowed to cool, then cut into 3 gram sticks. […] Each 3 gram stick contains 200 mg of ethyl maltol.

[6] = chewing gum, 600 mg/day, 1 day, subject 8b
[7] = chewing gum, 800 mg/day, course: 1a 16 days, 2b 20, 7b 20, 8a 1, 9a 5 days
[8] = chewing gum, 900 mg/day, 12 days, subject 2a
[9] = chewing gum, 1200 mg/day, 8 days, subject 4a
[10] = chewing gum, 1500 mg/day, 25 days, subject 3a
[11] = tablets, 1000 mg/day, 15 days, subject 11a
[12] = tablets, 1200 mg/day, 10 days, subject 10a

SMILES: CCc1occc(=O)c1O [ethyl maltol, 3-hydroxy-2-ethyl-4-pyrone]
- hexobarbital-induced sleeping time [1]: potentiating hexobarbital-induced sleeping time
- oxygen intake by rat brain cortex slices [2]: not affected
- Cigarette Consumption per day at end (in words) ([3]; chewing gum, 600 mg/day, 1 day, subject 6a, for following 2 wks.): Reduced to 1/2 pack for following
- Change in Smoking Pattern per cig. [3, 6]: Less than 1/2
- Cigarette Consumption per day at end [3, 6]: 7 cigarettes per day
- Percentage Reduction [3, 6]: 40-50%
- Change in Smoking Pattern per cig. ([3]; chewing gum, 700 mg/day, course: 2c 30 days, 3b 8, 5a 14, 7c 40 days): Approx. 1/2; also recorded: Varied; also recorded: Less than 3/4; also recorded: Reduced to 2-3 puffs
- Change in Smoking Pattern per cig. [3, 7]: Approx. 1/2; also recorded: Less than 1/2; also recorded: Less than 3/4; also recorded: Reduced to light-up
- Percentage Reduction [3, 7]: 70-80% and 41-68% and 75% and 75-80% and 70%
- Cigarette Consumption per day at end [3, 8]: 0 cigarettes per day
- Percentage Reduction [3, 8]: 100%
- Change in Smoking Pattern per cig. ([3]; chewing gum, 1000 mg/day, course: 4b 4 days, 7a 7, 12a 8 days): Less than 1/2; also recorded: Reduced to 3-4 puffs
- Cigarette Consumption per day at end [3, 9]: 0 cigarettes per day
- Percentage Reduction [3, 9]: 100%
- Cigarette Consumption per day at end [3, 10]: 0 cigarettes per day
- Percentage Reduction [3, 10]: 100%
- Smoking during dose course (in words) ([3]; non-habit smoker 13a, chewing gum, 1000 mg/day, 2 days): Not able to finish cigarette
- effectiveness of systemic administration ([3]; tablet form, subjects 10 and 11, retention in the mouth not ruled out): partially effective
- Change in Smoking Pattern per cig. [3, 11]: Less than 3/4
- Cigarette Consumption per day at end [3, 11]: 17-18 cigarettes per day
- Percentage Reduction [3, 11]: 40-43%
- Change in Smoking Pattern per cig. [3, 12]: Reduced to 3-4 puffs
- Cigarette Consumption per day at end [3, 12]: 10-12 cigarettes per day
- Percentage Reduction [3, 12]: 70-75%
- tobacco consumption of habitual smokers ([4]; appropriate dosage levels and rates): significantly reduces the tobacco consumption of habitual smokers
- onset of reduced cigarette consumption ([4]; day of treatment): about the second or third day of treatment
- symptoms of nicotine withdrawal ([4]; treatment over several days): does not appear to be accompanied by the typical symptoms of nicotine withdrawal
- volatility ([5]; especially at elevated temperatures): volatile, especially at elevated temperatures
- storage loss ([5]; unwrapped gum, room temperature): storage loss of ethyl maltol due to sublimation at room temperature
